In patent US5053395A, “Pradimicin amide derivatives” (Bristol-Myers Company, priority 1989, dated 1991):
Values after ≈ are worked out from the molar mass of the structure shown.

Columns and labels:
A. fumigatus = test: In vitro antifungal activity, MIC by serial agar dilution method (A. fumigatus); format: cell-based; details: Sabouraud dextrose agar, 44 hours at 28° C.; for MIC: Aspergillus fumigatus
Protocol: (§1) Antifungal activities of representative compounds of the present invention were evaluated both in vitro and in vivo. The minimum inhibitory concentrations (MICs) against various fungi were determined by serial agar dilution method using Sabouraud dextrose agar. Thus, approximately 0.003 ml of fungal suspension containing 10^6 cells/ml was applied to the surface of agar plates containing the test antibiotics. The MIC values recorded after the cultures had been incubated for 44 hours at 28° C. are set forth below in Table I.

C. neoformans = test: In vitro antifungal activity, MIC by serial agar dilution method (C. neoformans); format: cell-based; details: Sabouraud dextrose agar, 44 hours at 28° C.; for MIC: Cryptococcus neoformans
Protocol: as §1

T. mentagrophytes = test: In vitro antifungal activity, MIC by serial agar dilution method (T. mentagrophytes); format: cell-based; details: Sabouraud dextrose agar, 44 hours at 28° C.; for MIC: Trichophyton mentagrophytes
Protocol: as §1

C. albicans = test: In vitro antifungal activity, MIC by serial agar dilution method (C. albicans); format: cell-based; details: Sabouraud dextrose agar, 44 hours at 28° C.; for MIC: Candida albicans
Protocol: as §1

Candida albicans A9540 = test: In vivo activity against Candida albicans A9540 infection in mice; details: A9540, 480 h, male ICR mice, intravenous just after i.v. infection, survival on 20th day, read-out: PD50 (dose that protects 50% of the animals from infection)
Protocol: In vivo activity of compounds of the present invention was tested against Candida albicans A9540 infection in mice. Test organisms were cultured for 18 hours at 28° C. in YGP medium (yeast extract, glucose, peptone, K2 HPO4, MgSO4) and then suspended in saline. Male ICR mice weighing 20 to 24 g were infected intravenously with about 10 times the median lethal dose of the test fungus. The antibiotic at various dose levels was administered to groups of 5 mice each intravenously just after the fungal infection. The dose that protects 50% of the animals from infection (PD50, mg/kg) was calculated from survival rates recorded on the 20th day after the fungal challenge. All control animals died within 7 to 15 days after infection. The PD50 for compounds of Examples 2, 4, and 5 are 18 mg/kg, 11 mg/kg and 8.8 mg/kg, respectively.

[1] = tested on: calcium ion and calmodulin-dependent cyclic nucleotide phosphodiesterase; details: cited from earlier work

Row | Molecule | MIC (A. fumigatus) [µg/mL] | MIC (C. neoformans) [µg/mL] | MIC (T. mentagrophytes) [µg/mL] | MIC (C. albicans) [µg/mL] | ED50 (Candida albicans A9540) [mg/kg] | inhibitor of calcium ion and calmodulin-dependent cyclic nucleotide phosphodiesterase [1] | MIC A. fumigatus (A. fumigatus) [µg/mL] | MIC C. neoformans (C. neoformans) [µg/mL] | MIC T. mentagrophytes (T. mentagrophytes) [µg/mL] | MIC C. albicans (C. albicans) [µg/mL]
1 | CN[C@@H]1[C@H](O[C@@H]2OC[C@@H](O)[C@H](O)[C@H]2O)[C@@H](O)[C@H](O[C@H]2c3cc(C)c(C(=O)N[C@H](C)C(=O)N[C@H](C)C(=O)O)c(O)c3-c3c(cc4c(c3O)C(=O)c3cc(OC)cc(O)c3C4=O)[C@@H]2O)O[C@@H]1C [Example 1, D-alanyl Pradimicin A] | > 100 | 6.3 (≈ 6.91 µM) | > 100 | 25 (≈ 27.4 µM) |  |  |  |  |  | 
2 | CN[C@@H]1[C@H](O[C@@H]2OC[C@@H](O)[C@H](O)[C@H]2O)[C@@H](O)[C@H](O[C@H]2c3cc(C)c(C(=O)N[C@H](C)C(=O)N(C)C)c(O)c3-c3c(cc4c(c3O)C(=O)c3cc(OC)cc(O)c3C4=O)[C@@H]2O)O[C@@H]1C [Example 2, Pradimicin A Dimethylamide] | 6.3 (≈ 7.26 µM) | 1.6 (≈ 1.84 µM) | 12.5 (≈ 14.4 µM) | 12.5 (≈ 14.4 µM) | 18 |  |  |  |  | 
3 | CN[C@@H]1[C@H](O[C@@H]2OC[C@@H](O)[C@H](O)[C@H]2O)[C@@H](O)[C@H](O[C@H]2c3cc(C)c(C(=O)N[C@H](C)C(=O)NN)c(O)c3-c3c(cc4c(c3O)C(=O)c3cc(OC)cc(O)c3C4=O)[C@@H]2O)O[C@@H]1C [Example 3, Pradimicin A Hydrazide] | 25 (≈ 29.2 µM) | 3.1 (≈ 3.63 µM) | 25 (≈ 29.2 µM) | 50 (≈ 58.5 µM) |  |  |  |  |  | 
4 | CN[C@@H]1[C@H](O[C@@H]2OC[C@@H](O)[C@H](O)[C@H]2O)[C@@H](O)[C@H](O[C@H]2c3cc(C)c(C(=O)N[C@H](C)C(N)=O)c(O)c3-c3c(cc4c(c3O)C(=O)c3cc(OC)cc(O)c3C4=O)[C@@H]2O)O[C@@H]1C [Example 4, Pradimicin A Amide] | 6.3 (≈ 7.5 µM) | 1.6 (≈ 1.91 µM) | 12.5 (≈ 14.9 µM) | 6.3 (≈ 7.5 µM) | 11 |  |  |  |  | 
5 | CNC(=O)[C@@H](C)NC(=O)c1c(C)cc2c(c1O)-c1c(cc3c(c1O)C(=O)c1cc(OC)cc(O)c1C3=O)[C@H](O)[C@H]2O[C@@H]1O[C@H](C)[C@H](NC)[C@H](O[C@@H]2OC[C@@H](O)[C@H](O)[C@H]2O)[C@H]1O [Example 5, Pradimicin A Methylamide] | 6.3 (≈ 7.38 µM) | 1.6 (≈ 1.87 µM) | 6.3 (≈ 7.38 µM) | 6.3 (≈ 7.38 µM) | 8.8 |  |  |  |  | 
6 | CN[C@@H]1[C@H](O[C@@H]2OC[C@@H](O)[C@H](O)[C@H]2O)[C@@H](O)[C@H](O[C@H]2c3cc(C)c(C(=O)N[C@H](C)C(=O)NCC(=O)O)c(O)c3-c3c(cc4c(c3O)C(=O)c3cc(OC)cc(O)c3C4=O)[C@@H]2O)O[C@@H]1C [Example 7, Glycyl Pradimicin A] | > 50 | 12.5 (≈ 13.9 µM) | > 50 | > 50 |  |  |  |  |  | 
7 | CC(=O)Cc1cc2c(c(O)c1C(=O)O)-c1cc3c(c(O)c1CC2)C(=O)c1c(O)cc(O)cc1C3=O [KS-619-1] |  |  |  |  |  | inhibitor |  |  |  | 
8 | Pradimicin A Butylamide [Example 6] |  |  |  |  |  |  | 50 | 3.1 | 100 | 100
